Values after ≈ are worked out from the molar mass of the structure shown.

One data set concerns Salmonella Albany. Description: MIC and MBC dose-response, serotype Albany. The class given is cell-based, Salmonella enterica. As to conditions: MIC identical to MBC. Here is the method:
(§1) An overnight Salmonella suspension was normalized at 0.05 OD600 (approximately 3.5×10^7 CFU/ml) with an adjusted M9 minimal broth medium (12.7 mM Na2HPO4 7H2O; 22 mM KH2PO4; 18.7 mM NH4Cl; 2 mM MgSO4; 0.1 mM CaCl2; 0.4% glucose; 0.05% casamino acids). 100 μL of the suspension plus 2 μl of SMs (200 μM) were transferred into each well of a sterile, non-treated, flat bottom 96-well plate. Bacteria alone (negative control, NC), 2% DMSO plus bacteria (DMSO control), 20 μg/ml chloramphenicol or 50 μg/ml kanamycin plus bacteria (positive controls, PC), and M9 medium only were used as control. Plates were incubated in a Sunrise™ Tecan kinetic microplate reader for 12 hrs at 37° C. and the optical density (OD) was measure at 600 nm as described above. Percentage of inhibition=(OD600 SM−OD600 NC)/(OD600 NC)×100. […] Cultures from wells showing no turbidimetric increase were transferred onto a XLT4 agar plate. Plates were incubated at 37° C. for 36 hrs.
(§2) Screens were performed as described in the primary screen. The lowest SM concentration with a static effect was considered as the minimal inhibitory concentration (MIC) and the lowest SM concentration with a cidal effect was considered as the minimal bactericidal concentration (MBC).

The subject of another data set is Salmonella Braenderup. Description: MIC and MBC dose-response, serotype Braenderup. The class given is cell-based, Salmonella enterica. As to conditions: MIC identical to MBC.
Another data set has as its system Salmonella Enteritidis. The data set is described as follows: MIC and MBC dose-response, serotype Enteritidis. It counts as cell-based, Salmonella enterica. The settings on record: MIC identical to MBC. Here is the method:
as §1, §2

A further data set concerns Salmonella Heidelberg. Description: MIC and MBC dose-response, serotype Heidelberg. It counts as cell-based, Salmonella enterica. As to conditions: MIC identical to MBC. On the procedure: as §1, §2
A further data set concerns sheep red blood cells. Description: Hemolytic activity in sheep RBCs. It counts as cell-based. As to conditions: 200 μM, one-hour treatment. On the procedure: (§3) Briefly, 200 μl of 10% sheep red blood cells (RBCs; LAMPIRE Biological Laboratories, Pipersville, PA) suspension was incubated with 1 μl of SMs (200 μM) for one hour at 37° C. in a sterile, non-treated, flat bottom plate 96-well. After incubation, the plate was centrifuged at 4000 rpm for 5 min at 4° C., then placed on ice for five min. 100 μL of the supernatant was transferred into a new sterile, treated, flat bottom 96-well plate, and the OD was measured at 540 nm. For this experiment, 2% DMSO (negative control) and 0.1% Triton-100X (positive control) were used. % Hemolysis=(OD540 SM−OD540 DMSO)/(OD540 1× triton−OD540 PBS)×100. Similar experiment was performed with chicken RBCs (OARDC, Ohio).

The subject of another data set is chicken red blood cells. Description: Hemolytic activity in chicken RBCs. The class given is cell-based. The settings on record: 200 μM, one-hour treatment. Here is the method: as §3
Data set [1] deals with Galleria mellonella larvae. Description: Toxicity on Galleria mellonella larva. It counts as in vivo. The settings on record: over 72 HPI, single treatment with 12.5 μg per larva. Here is the method:
Toxicity of the selected four SMs on Galleria mellonella larva: Galleria mellonella larvae (fifth instar stage) were incubated for 12 hrs at 37° C. in the dark. After incubation, only larvae with a white phenotype and a body weight ranging between 225 mg to 275 mg were selected for the injection. Fifteen larvae per group were inoculated in one of the last pro-leg with 12.5 μg of SMs (8.5 μl) using a PB600-1 repeating dispenser (Hamilton, Reno, NV) attached to 300 μl insulin syringe, 31-gauge, 8 mm needle length (ReliOn®, Bentonville, AR). SMs were diluted into a buffer mix (30% DMSO plus 10 mM MgSO4). Larvae were placed inside a plastic petri dish and incubated for 3 days in the dark at 37° C. Every 12 hrs of interval, the larva survival was monitored. Non-treated larvae, larvae treated with the buffer mix, and larvae treated with 12.5 μg of chloramphenicol were used as control. At least two independent experiments were conducted.

In the next data set the test system is chicken cecal microbiota. Description: Cecal microbiota 16S rRNA sequencing of SM-treated infected chickens. The class given is in vivo, broiler chickens. The settings on record: compared to DMSO group (P<0.01). On the procedure:
DNA extraction and sequencing: Microbiota diversity and abundance were investigated using the second cecum directly stored in −80° C. Genomic DNA was extracted using the PureLink Microbiome DNA Purification Kit (Life Technologies, Invitrogen Corp.), combined with RNAse treatment (10 units/hour). About 0.15 g to 0.20 g of cecum content was processed according to manufacturer's instructions. After quality control with electrophoresis and nanodrop, extracted DNA samples were subjected for 16S rRNA V4-V5 variable region sequencing. As a first step of targeted sequencing, amplicon libraries were prepared by using Phusion® High-Fidelity PCR Kit (New England Biolabs Inc, Ipswich, MA) in a 96-well plate. 25 μL of PCR reactions were prepared using 5 μl (5×) of PCR buffer, 4 μl (5 ng/μl) of DNA sample, and 2.5 μl (2 μM) primer, 0.5 μl (10 mM) dNTPs, 0.2 μl of enzyme, and nuclease free water to final volume. The barcoded primers targeted the V4-V5 variable region. […] Sample concentrations were measured, and equal concentration of all samples were pooled into one flow cell and sequenced using Illumina MiSeq 300-base, paired-end kit at the Molecular and Cellular Imaging Center (Ohio Agricultural Research & Development Center, Wooster, OH).
Bioinformatics analyses: After sequencing, a quality control of the raw reads was performed using FastQC (Babraham Bioinformatics, Cambridge, USA). […] Details concerning the parameters used are described in mcbl.readthedocs.io/en/latest/mcbl-tutorials-AD-clean.html. […] Then samples were processed using Quantitative Insights Into Microbial Ecology (QIIME) software version 1.9 (16). Operational Taxonomy Units (OTUs) were determined by clustering reads against Greengenes 16S reference dataset (2013-08 release) at a 97% identity using open picking reference OTU (pick_open_reference_otus.py) method using default parameters, except setting minimum OTU size to 10. […]

Regarding `CC1CCC(C(C)C)C(OC(=O)Cn2c[n+](CC(=O)OC3CC(C)CCC3C(C)C)c3ccccc32)C1.[Cl-]` (stereo not drawn) [SM1, 1,3-bis{2-[(2-isopropyl-5-methylcyclohexyl)oxy]-2-oxoethyl}-1H-3,1-benzimidazol-3-ium chloride], the “MIC/MBC” value with Salmonella Albany, against Salmonella Braenderup, against Salmonella Enteritidis and with Salmonella Heidelberg was 100 µM each time. Moreover, in the data set on sheep red blood cells, the “hemolytic activity in sheep RBCs” value is listed as more than 50%. For the same compound, the “hemolytic activity in chicken RBCs” value with chicken red blood cells is on record as more than 50%. Moreover, in data set [1], the “lethal effect in G. mellonella larvae” value is “chronic death of the larvae over time”. In addition, in the data set on chicken cecal microbiota, the “abundance of Salmonella OTUs in ceca” value is listed as “reduction”.
For the compound `CCCCCCCCCCCCCCCC[n+]1ccn(CC#N)c1.[Cl-]` [SM3, 1-(cyanomethyl)-3-hexadecyl-1H-imidazol-3-ium chloride], the “MIC/MBC” value against Salmonella Albany turned out to be 25 µM; with Salmonella Braenderup, 25 µM; against Salmonella Enteritidis, 25 µM; in the data set on Salmonella Heidelberg, 50 µM. The “lethal effect in G. mellonella larvae” value in data set [1] is on record as “killed only a few larvae”.
On to `CCCCCCCCCCCCCCCCn1c[n+](C)c2ccccc21.[Br-]` [SM4, 1-hexadecyl-3-methyl-1H-3,1-benzimidazol-3-ium bromide], for which the “MIC/MBC” value against Salmonella Albany was found to be 10 µM; with Salmonella Braenderup it was 10 µM; in the data set with Salmonella Enteritidis, 10 µM; in the data set with Salmonella Heidelberg it was 25 µM. In addition, the “lethal effect in G. mellonella larvae” value in data set [1] was “no lethal effect”. Moreover, the “abundance of Salmonella OTUs in ceca” value in the data set with chicken cecal microbiota is “reduced abundance”.
Turning to `CCOc1cc(/C=N/N=C(N)N)ccc1OCc1ccc(Cl)cc1` [SM5, N″-{4-[(4-chlorobenzyl)oxy]-3-ethoxybenzylidene}carbonohydrazonic diamide], the “MIC/MBC” value stood at 100 µM (≈ 34.7 µg/mL) in the data set with Salmonella Albany, 50 µM (≈ 17.3 µg/mL) in the data set with Salmonella Braenderup, 50 µM (≈ 17.3 µg/mL) against Salmonella Enteritidis and 50 µM (≈ 17.3 µg/mL) with Salmonella Heidelberg. In addition, the “hemolytic activity in sheep RBCs” value with sheep red blood cells was “lower than 1%”. For the same compound, the “hemolytic activity in chicken RBCs” value in the data set on chicken red blood cells is recorded as “lower than 1%”. The “lethal effect in G. mellonella larvae” value in data set [1] is “killed only a few larvae”. In addition, the “abundance of Salmonella OTUs in ceca” value in the data set on chicken cecal microbiota is reported as “reduced abundance”.

Source of the values: patent US12161630B2, “Methods to control infection using new generation small molecule growth inhibitors” (priority 2017, dated 2024).
